The numbers were not newly measured in publication PMC6277198, “Molecular basis for activation of lecithin:cholesterol acyltransferase by a compound that increases HDL cholesterol” (eLife, 2018), which cites them from elsewhere.

In series [1] the test system is LCAT. Also noted: method as in Kobayashi et al., 2015a; Kobayashi et al., 2015b. The conditions noted are these: removal of the C4 hydroxyl group, ref Kobayashi et al., 2015a, 2015b; cited from earlier work.
The test system of series [2] is mice and hamsters. Also noted: method as in Chen et al., 2012; Freeman et al., 2017; Kayser et al., 2013. The conditions noted are these: ref Chen et al., 2012, Freeman et al., 2017, Kayser et al., 2013; cited from earlier work.
On the set-up of series [3]: method as in Shamburek et al., 2016b. To be noted: ref Shamburek et al., 2016b; cited from earlier work.

Regarding `O=C1CC(C(F)(F)F)c2c(C3CCN(c4cnc(C(F)(F)F)cn4)CC3)n[nH]c2N1` (stereo not drawn) [compound 4, 4-(trifluoromethyl)−3-(1-(5-(trifluoromethyl)pyrazin-2-yl)piperidin-4-yl)−1,4,5,7-tetrahydro-6H-pyrazolo[3,4-b]pyridin-6-one], the “drop in potency compared with 2” value in series [1] is reported as ~ 6 fold.

As to `CCSc1nnc(Sc2nccnc2C#N)s1` [Compound A, 3-(5-(ethylthio)−1,3,4-thiadiazol-2-ylthio)pyrazine-2-carbonitrile], in series [2], the “plasma CE and HDL-C levels” value is “increases”.

On to “rhLCAT: Recombinant human LCAT, tested in phase I and as enzyme replacement therapy”, for which, in series [3], the “safety in a phase I study” value was “safe”.
